Test results reported in article PMC4965013, “Open Source Drug Discovery with the Malaria Box Compound Collection for Neglected Diseases and Beyond” (PLoS Pathogens, 2016).

How the values were obtained:
P. falciparum = assay: EC50 listed in S2 Table Metabolomics (used to set the concentration tested); assay type: cell-based; settings: Plasmodium falciparum; EC50 used for Factor_XEC50 in metabolomics; read-out: EC50_nM
[1] = system: P. falciparum 3D7 trophozoites; assay: Metabolomic fingerprint profiling LC-MS; assay type: cell-based, Plasmodium falciparum; design: UDP-D-glucose / ADP-D-glucose: unit not given here; settings: for Acetyllysine / N-acetyl-L-ornithine / N-carbamoyl-L-aspartate / NADPH / dAMP / dCMP / dTDP / dTMP / dTTP / dihydroorotate / orotate / DLH / DLS/SDL/SID / PD / PEE / PVNF / 3-phosphoglycerate / ADP-D-glucose / ATP / CDP / D-sedoheptulose-1/7-phosphate / FAD / GMP / NAD+ / NADP+ / Octoluse Bisphosphate / Pyroglutamic acid / UDP-D-glucose / UDP-D-glucuronate / UDP-N-acetyl-glucosamine / UDP / UMP / UTP / a-ketoglutarate / citrate/isocitrate / cytidine / dATP / dGMP/AMP / fumarate / glucose-1/6-phosphate / glycerate / guanine / guanosine / hypoxanthine / indole / inosine / nicotinate / ornithine / phosphoenolpyruvate / pyruvate / ribose-phosphate / sarcosine/alanine / sn-glycerol-3-phosphate / succinate/methylmalonic acid / uridine / xanthosine: S2 Table Metabolomics; for Acetyllysine: metabolite Acetyllysine; for N-acetyl-L-ornithine: metabolite N-acetyl-L-ornithine; for N-carbamoyl-L-aspartate: metabolite N-carbamoyl-L-aspartate; for NADPH: metabolite NADPH; for dAMP: metabolite dAMP; for dCMP: metabolite dCMP; for dTDP: metabolite dTDP; for dTMP: metabolite dTMP; for dTTP: metabolite dTTP; for dihydroorotate: metabolite dihydroorotate; for orotate: metabolite orotate; for DLH: peptide DLH; for DLS/SDL/SID: peptide DLS/SDL/SID; for PD: peptide PD; for PEE: peptide PEE; for PVNF: peptide PVNF; for 3-phosphoglycerate: metabolite 3-phosphoglycerate; for ADP-D-glucose: metabolite ADP-D-glucose; for ATP: metabolite ATP; for CDP: metabolite CDP; for CDP / D-sedoheptulose-1/7-phosphate / GMP / Octoluse Bisphosphate / UDP / UMP / UTP / citrate/isocitrate / dGMP/AMP / fumarate / glucose-1/6-phosphate / glycerate / guanine / guanosine / inosine / pyruvate / sarcosine/alanine / succinate/methylmalonic acid / uridine / xanthosine: change in metabolite level after compound treatment; for D-sedoheptulose-1/7-phosphate: metabolite D-sedoheptulose-1/7-phosphate; for FAD: metabolite FAD; for GMP: metabolite GMP; for NAD+: metabolite NAD+; for NADP+: metabolite NADP+; for Octoluse Bisphosphate: metabolite Octoluse Bisphosphate; for Pyroglutamic acid: metabolite Pyroglutamic acid; for UDP-D-glucose: metabolite UDP-D-glucose; for UDP-D-glucuronate: metabolite UDP-D-glucuronate; for UDP-N-acetyl-glucosamine: metabolite UDP-N-acetyl-glucosamine; for UDP: metabolite UDP; for UMP: metabolite UMP; for UTP: metabolite UTP; for a-ketoglutarate: metabolite a-ketoglutarate; for citrate/isocitrate: metabolite citrate/isocitrate; for cytidine: metabolite cytidine; for dATP: metabolite dATP; for dGMP/AMP: metabolite dGMP/AMP; for fumarate: metabolite fumarate; for glucose-1/6-phosphate: metabolite glucose-1/6-phosphate; for glycerate: metabolite glycerate; for guanine: metabolite guanine; for guanosine: metabolite guanosine; for hypoxanthine: metabolite hypoxanthine; for indole: metabolite indole; for inosine: metabolite inosine; for 2_3-Diphosphoglyceric acid / 4-phosphopantothenate / 6-phospho-D-gluconate / FMN / IMP / Pyrophosphate / Sedoheptoluse bisphosphate / cyclic-AMP / glutathione disulfide / lactate / myo-inositol: metabolite level change after treatment; for nicotinate: metabolite nicotinate; for ornithine: metabolite ornithine; for phosphoenolpyruvate: metabolite phosphoenolpyruvate; for pyruvate: metabolite pyruvate; for ribose-phosphate: metabolite ribose-phosphate; for sarcosine/alanine: metabolite sarcosine/alanine; for sn-glycerol-3-phosphate: metabolite sn-glycerol-3-phosphate; for succinate/methylmalonic acid: metabolite succinate/methylmalonic acid; for uridine: metabolite uridine; for xanthosine: metabolite xanthosine

Work on `Cc1cc(NC(=O)C2c3ccccc3C(=O)N(CC(C)C)C2c2cccs2)no1` (stereo not drawn) [MMV006429] yielded an EC50 (P. falciparum) of 32.8 nM, an Acetyllysine [1] of -4.876 and a N-acetyl-L-ornithine [1] of -3.5354. It also gave a N-carbamoyl-L-aspartate [1] of -2.585, an NADPH [1] of 1.978 and a dAMP [1] of 2.292. For the same compound, the dCMP [1] was 1.167, the dTDP [1] was 1.627 and the dTMP [1] was 3.344. For the same compound, the dTTP [1] was 1.446, the dihydroorotate [1] was -3.6651 and the orotate [1] was -0.181. For the same compound, the DLH [1] was -5.907, the DLS/SDL/SID [1] was -4.536 and the PD [1] was -2.845. For the same compound, the PEE [1] was -3.543, the PVNF [1] was -6.513 and the 3-phosphoglycerate [1] was 0.34. It also gave an ADP-D-glucose [1] of -0.1376, an ATP [1] of -1.344 and a CDP [1] of -0.4641. It also gave a D-sedoheptulose-1/7-phosphate [1] of -1.187, an FAD [1] of -1.625 and a GMP [1] of -1.884. For the same compound, the “NAD+” value [1] was -0.4933, the “NADP+” value [1] was -0.001455 and the “Octoluse Bisphosphate” value [1] was -2.069. The Pyroglutamic acid [1] was 0.2334, the UDP-D-glucose [1] was -0.07653 and the UDP-D-glucuronate [1] was -0.002659. The UDP-N-acetyl-glucosamine [1] was 0.06871, the UDP [1] was -1.216 and the UMP [1] was -0.6265. The UTP [1] was -1.299, the a-ketoglutarate [1] was 0.2879 and the citrate/isocitrate [1] was -0.09158. It also gave a cytidine [1] of 0.5285, a dATP [1] of 0.0138 and a dGMP/AMP [1] of -0.6616. It also gave a fumarate [1] of -0.1647, a glucose-1/6-phosphate [1] of -1.368 and a glycerate [1] of -0.8344. It also gave a guanine [1] of 0.5068, a guanosine [1] of 1.214 and a hypoxanthine [1] of 0.09881. It also gave an indole [1] of 0.1757, an inosine [1] of 0.2569 and a 2_3-Diphosphoglyceric acid [1] of -1.036. It also gave a 4-phosphopantothenate [1] of -0.6242, a 6-phospho-D-gluconate [1] of -0.2953 and an FMN [1] of -0.07748. It also gave an IMP [1] of -0.08419, a Pyrophosphate [1] of -1.06 and a Sedoheptoluse bisphosphate [1] of -0.9732. The cyclic-AMP [1] was -0.7986, the glutathione disulfide [1] was -0.4517 and the lactate [1] was -0.7779. The myo-inositol [1] was -1.114, the nicotinate [1] was 0.9425 and the ornithine [1] was -0.1056. For the same compound, the phosphoenolpyruvate [1] was 0.447, the pyruvate [1] was -2.0102 and the ribose-phosphate [1] was -0.6145. It also gave a sarcosine/alanine [1] of -1.58, a sn-glycerol-3-phosphate [1] of 1.267 and a succinate/methylmalonic acid [1] of 0.2625. It also gave a uridine [1] of 1.463 and a xanthosine [1] of -1.351.

`Cc1ccc(Nc2nc(NCCO)c3ccccc3n2)cc1C` [MMV001038] gave an EC50 (P. falciparum) of 428 nM, an Acetyllysine [1] of -1.736 and a N-acetyl-L-ornithine [1] of -0.8338. The N-carbamoyl-L-aspartate [1] was 2.2667, the NADPH [1] was 1.133 and the dAMP [1] was 0.6638. The dCMP [1] was -0.6324, the dTDP [1] was 0.5044 and the dTMP [1] was 1.028. For the same compound, the dTTP [1] was -1.24, the dihydroorotate [1] was 2.22 and the orotate [1] was -0.01519. The DLH [1] was -3.038, the DLS/SDL/SID [1] was -1.162 and the PD [1] was -0.2116. For the same compound, the PEE [1] was -5.814, the PVNF [1] was -1.547 and the 3-phosphoglycerate [1] was 0.5584. The ADP-D-glucose [1] was 0.41, the ATP [1] was -0.8212 and the CDP [1] was -0.1382. It also gave a D-sedoheptulose-1/7-phosphate [1] of 0.3347, an FAD [1] of 0.9327 and a GMP [1] of 0.5554. For the same compound, the “NAD+” value [1] was 0.6377, the “NADP+” value [1] was 1.018 and the “Octoluse Bisphosphate” value [1] was 0.3963. For the same compound, the Pyroglutamic acid [1] was -0.8623, the UDP-D-glucose [1] was 0.149 and the UDP-D-glucuronate [1] was 0.1087. For the same compound, the UDP-N-acetyl-glucosamine [1] was 0.4035, the UDP [1] was 0.7043 and the UMP [1] was -0.2063. The UTP [1] was -0.5445, the a-ketoglutarate [1] was -0.3007 and the citrate/isocitrate [1] was -0.768. The cytidine [1] was 0.3191, the dATP [1] was -1.248 and the dGMP/AMP [1] was 0.4665. It also gave a fumarate [1] of -0.3966, a glucose-1/6-phosphate [1] of 3.518 and a glycerate [1] of 0.8355. It also gave a guanine [1] of -0.1055, a guanosine [1] of -0.4181 and a hypoxanthine [1] of 0.2457. For the same compound, the indole [1] was -0.2391, the inosine [1] was 0.4136 and the 2_3-Diphosphoglyceric acid [1] was 0.3981. The 4-phosphopantothenate [1] was 0.7744, the 6-phospho-D-gluconate [1] was -0.4519 and the FMN [1] was 0.7846. The IMP [1] was 0.7773, the Pyrophosphate [1] was -0.6549 and the Sedoheptoluse bisphosphate [1] was 0.6681. For the same compound, the cyclic-AMP [1] was 0.8549, the glutathione disulfide [1] was 0.7162 and the lactate [1] was 1.5312. The myo-inositol [1] was 3.154, the nicotinate [1] was -0.4211 and the ornithine [1] was -0.2093. The phosphoenolpyruvate [1] was 0.02444, the pyruvate [1] was 0.2652 and the ribose-phosphate [1] was 0.4889. For the same compound, the sarcosine/alanine [1] was -0.4284, the sn-glycerol-3-phosphate [1] was 0.01718 and the succinate/methylmalonic acid [1] was -0.401. The uridine [1] was 0.3457 and the xanthosine [1] was -1.776.

For `COc1ccccc1CNC(=O)CCn1c(=O)[nH]c2ccccc2c1=O` [MMV665916], the EC50 (P. falciparum) was 72.6 nM, the Acetyllysine [1] was 0.3638 and the N-acetyl-L-ornithine [1] was 0.3943. For the same compound, the N-carbamoyl-L-aspartate [1] was -0.2097, the NADPH [1] was -0.7222 and the dAMP [1] was 0.5335. For the same compound, the dCMP [1] was -0.1283, the dTDP [1] was 0.2837 and the dTMP [1] was 0.1911. For the same compound, the dTTP [1] was 0.1028, the dihydroorotate [1] was 0.195 and the orotate [1] was 0.1648. The DLH [1] was -0.3906, the DLS/SDL/SID [1] was -0.1223 and the PD [1] was 0.1255. It also gave a PEE [1] of 0.2968, a PVNF [1] of -0.3118 and a 3-phosphoglycerate [1] of 0.2339. The ADP-D-glucose [1] was 0.1724, the ATP [1] was 0.1531 and the CDP [1] was 0.2423. It also gave a D-sedoheptulose-1/7-phosphate [1] of 0.1783, an FAD [1] of 0.06654 and a GMP [1] of -0.759. The “NAD+” value [1] was 0.08579, the “NADP+” value [1] was 0.1944 and the “Octoluse Bisphosphate” value [1] was 0.5392. The Pyroglutamic acid [1] was -0.1569, the UDP-D-glucose [1] was 0.1671 and the UDP-D-glucuronate [1] was 0.1875. It also gave a UDP-N-acetyl-glucosamine [1] of 0.2144, a UDP [1] of 0.1783 and a UMP [1] of -0.6315. For the same compound, the UTP [1] was 0.2956, the a-ketoglutarate [1] was -0.329 and the citrate/isocitrate [1] was -0.5155. It also gave a cytidine [1] of -0.1275, a dATP [1] of 0.146 and a dGMP/AMP [1] of 0.3579. For the same compound, the fumarate [1] was -0.07198, the glucose-1/6-phosphate [1] was -0.1463 and the glycerate [1] was 0.2881. The guanine [1] was -0.1565, the guanosine [1] was -0.3335 and the hypoxanthine [1] was -0.2904. For the same compound, the indole [1] was -0.1941, the inosine [1] was -0.04044 and the 2_3-Diphosphoglyceric acid [1] was 0.5062. It also gave a 4-phosphopantothenate [1] of 0.1361, a 6-phospho-D-gluconate [1] of 0.2552 and an FMN [1] of 0.1915. For the same compound, the IMP [1] was 0.3796, the Pyrophosphate [1] was 0.2568 and the Sedoheptoluse bisphosphate [1] was 0.5745. It also gave a cyclic-AMP [1] of 0.1551, a glutathione disulfide [1] of 0.2989 and a lactate [1] of -0.2145. The myo-inositol [1] was 0.9008, the nicotinate [1] was -0.1745 and the ornithine [1] was 0.1369. For the same compound, the phosphoenolpyruvate [1] was 0.02242, the pyruvate [1] was -0.2103 and the ribose-phosphate [1] was -0.4062. The sarcosine/alanine [1] was 0.2908, the sn-glycerol-3-phosphate [1] was -0.1634 and the succinate/methylmalonic acid [1] was -0.1615. For the same compound, the uridine [1] was -0.1737 and the xanthosine [1] was -0.4685.
